Data as given in ChEMBL document CHEMBL3217587, “The discovery of N-1 substituted 2-aminobenzimidazoles as zinc-dependent S. aureus biofilm inhibitors” (Medchemcomm, 2012).
pIC50: −log10 of the molar value. ≈ marks a conversion by molar mass, not a printed value. Calls of active or inactive are those of the source. No cut-off for these calls is given here.

Tests used:
[1] = tested on: Staphylococcus aureus; experiment: Antimicrobial activity against methicillin-susceptible Staphylococcus aureus ATCC 29213 after 16 hrs by broth microdilution method; type: functional; conditions: ATCC 29213, 16 h
[2] = tested on: Staphylococcus aureus; experiment: Antimicrobial activity against methicillin-resistant Staphylococcus aureus ATCC BAA-44 after 16 hrs by broth microdilution method; type: functional; conditions: ATCC BAA-44, 16 h
[3] = tested on: Staphylococcus aureus; experiment: Antimicrobial activity against methicillin-resistant Staphylococcus aureus ATCC 33591 after 16 hrs by broth microdilution method; type: functional; conditions: ATCC 33591, 16 h
[4] = tested on: Staphylococcus aureus; experiment: Antimicrobial activity against methicillin-resistant Staphylococcus aureus ATCC 43300 after 16 hrs by broth microdilution method; type: functional; conditions: ATCC 43300, 16 h
[5] = tested on: Staphylococcus aureus; experiment: Antimicrobial activity against methicillin-resistant Staphylococcus aureus ATCC 700789 after 16 hrs by broth microdilution method; type: functional; conditions: ATCC 700789, 16 h
[6] = tested on: Staphylococcus aureus; experiment: Antimicrobial activity against methicillin-resistant Staphylococcus aureus ATCC BAA-811 after 16 hrs by broth microdilution method; type: functional; conditions: ATCC BAA-811, 16 h
[7] = tested on: Staphylococcus aureus; experiment: Antimicrobial activity against methicillin-resistant Staphylococcus aureus ATCC BAA-1556 after 16 hrs by broth microdilution method; type: functional; conditions: ATCC BAA-1556, 16 h
[8] = tested on: Staphylococcus aureus; experiment: Antimicrobial activity against methicillin-resistant Staphylococcus aureus ATCC BAA-1685 after 16 hrs by broth microdilution method; type: functional; conditions: ATCC BAA-1685, 16 h
[9] = tested on: Staphylococcus aureus; experiment: Antimicrobial activity against methicillin-resistant Staphylococcus aureus ATCC BAA-1753 after 16 hrs by broth microdilution method; type: functional; conditions: ATCC BAA-1753, 16 h
[10] = tested on: Acinetobacter baumannii; experiment: Antimicrobial activity against multidrug-resistant Acinetobacter baumannii ATCC BAA-1605 after 16 hrs by broth microdilution method; type: functional; conditions: ATCC BAA-1605, 16 h
[11] = tested on: Pseudomonas aeruginosa; experiment: Antimicrobial activity against Pseudomonas aeruginosa PA14 after 16 hrs by broth microdilution method; type: functional; conditions: PA14, 16 h
[12] = tested on: Staphylococcus aureus; experiment: Toxicity in methicillin-resistant Staphylococcus aureus ATCC 43300 assessed as inhibition of planktonic cell growth at IC50 after 2 to 24 hrs by spectrophotometry; type: organism-based
[13] = tested on: Staphylococcus aureus; experiment: Antimicrobial activity against methicillin-resistant Staphylococcus aureus ATCC 43300 assessed as inhibition of biofilm formation after 24 hrs by crystal violet staining-based microscopy; type: functional, organism-based; conditions: ATCC 43300, 24 h
[14] = tested on: Staphylococcus aureus; experiment: Antimicrobial activity against methicillin-resistant Staphylococcus aureus ATCC BAA-44 assessed as inhibition of biofilm formation after 24 hrs by crystal violet staining-based microscopy; type: functional, organism-based; conditions: ATCC BAA-44, 24 h
[15] = tested on: Staphylococcus aureus; experiment: Antibiofilm activity against methicillin-resistant Staphylococcus aureus ATCC 43300 assessed as biofilm dispersal at 20 uM after 24 hrs by crystal violet staining-based microscopy; type: functional, organism-based
[16] = tested on: Staphylococcus aureus; experiment: Toxicity in methicillin-resistant Staphylococcus aureus ATCC BAA-44 assessed as inhibition of planktonic cell growth at IC50 after 2 to 24 hrs by spectrophotometry; type: organism-based

| Compound | MIC [1] | MIC [2] | MIC [3] | MIC [4] | MIC [5] | MIC [6] | MIC [7] | MIC [8] | MIC [9] | MIC [10] | MIC [11] | Activity [12] | pIC50 [13] | pIC50 [14] | Activity [15] | Activity [16] |
| --- | --- | --- | --- | --- | --- | --- | --- | --- | --- | --- | --- | --- | --- | --- | --- | --- |
| CCCCCc1ccc(C(=O)Nc2ccc3c(c2)nc(N)n3Cc2ccccc2)cc1.Cl | > 64 µg/mL | > 64 µg/mL | > 64 µg/mL | > 64 µg/mL | > 64 µg/mL | > 64 µg/mL | > 64 µg/mL | > 64 µg/mL | > 64 µg/mL | > 64 µg/mL | > 64 µg/mL | Non-toxic | 5.28 | 5.17 | inactive | Non-toxic |
| CCCCCc1ccc(C(=O)Nc2ccc3c(c2)nc(N)n3CCCC)cc1.Cl | 8 µg/mL | 8 µg/mL | 8 µg/mL | 8 µg/mL | 8 µg/mL | 8 µg/mL | 8 µg/mL | 8 µg/mL | 8 µg/mL | > 64 µg/mL | > 64 µg/mL | Non-toxic | 5.35 | 5.30 | inactive | Non-toxic |
| CCCCCc1ccc(C(=O)Nc2ccc3c(c2)nc(N)n3CCc2cccc(OC)c2)cc1.Cl | 16 µg/mL | 32 µg/mL | 16 µg/mL | 16 µg/mL | 16 µg/mL | 16 µg/mL | 16 µg/mL | 16 µg/mL | 16 µg/mL | > 64 µg/mL | > 64 µg/mL | Toxic | 5.21 | 5.03 | inactive | Non-toxic |
| CCCCCCCCn1c(N)nc2cc(NC(=O)c3ccc(CCCCC)cc3)ccc21.Cl | 64 µg/mL | 64 µg/mL | 64 µg/mL | 64 µg/mL | 64 µg/mL | 32 µg/mL | > 64 µg/mL | 64 µg/mL | 64 µg/mL | > 64 µg/mL | > 64 µg/mL | Non-toxic | 5.03 | 5.17 | inactive | Non-toxic |
| CCCCCc1ccc(C(=O)Nc2ccc3c(c2)nc(N)n3C2CCCC2)cc1.Cl | 16 µg/mL | 16 µg/mL | 8 µg/mL | 8 µg/mL | 16 µg/mL | 16 µg/mL | 8 µg/mL | 8 µg/mL | 8 µg/mL | > 64 µg/mL | > 64 µg/mL | Non-toxic | 5.44 | 5.37 | inactive | Non-toxic |
| CCCCCc1ccc(C(=O)Nc2ccc3c(c2)nc(N)n3CCc2ccc(OC)cc2)cc1.Cl | 16 µg/mL | 16 µg/mL | 16 µg/mL | 8 µg/mL | 16 µg/mL | 16 µg/mL | 8 µg/mL | 8 µg/mL | 16 µg/mL | > 64 µg/mL | > 64 µg/mL | Toxic | 5.21 | 4.98 | inactive | Toxic |
| CCCCCc1ccc(C(=O)Nc2ccc3c(c2)nc(N)n3CCc2ccc3ccccc3c2)cc1.Cl | 64 µg/mL | 32 µg/mL | 32 µg/mL | 32 µg/mL | 32 µg/mL | 32 µg/mL | 32 µg/mL | 32 µg/mL | 64 µg/mL | > 64 µg/mL | > 64 µg/mL | Toxic | 5.24 | 4.84 | inactive | Toxic |
| CCCCCc1ccc(C(=O)Nc2ccc3c(c2)nc(N)n3-c2ccc(CCCCC)cc2)cc1.Cl | 64 µg/mL | > 64 µg/mL | > 64 µg/mL | > 64 µg/mL | > 64 µg/mL | > 64 µg/mL | > 64 µg/mL | 64 µg/mL | 64 µg/mL | > 64 µg/mL | > 64 µg/mL |  | < 4.70 | < 4.70 | inactive |  |
| CCCCCc1ccc(C(=O)Nc2ccc3c(c2)nc(N)n3CCc2cccc3ccccc23)cc1.Cl | > 64 µg/mL | > 64 µg/mL | 64 µg/mL | > 64 µg/mL | > 64 µg/mL | > 64 µg/mL | > 64 µg/mL | > 64 µg/mL | > 64 µg/mL | > 64 µg/mL | > 64 µg/mL |  | < 4.70 | < 4.70 | inactive |  |
| CCCCCc1ccc(C(=O)Nc2ccc3c(c2)nc(N)n3CCc2c[nH]c3ccccc23)cc1.Cl | 16 µg/mL | 16 µg/mL | 8 µg/mL | 16 µg/mL | 16 µg/mL | 8 µg/mL | 16 µg/mL | 16 µg/mL | 16 µg/mL | > 64 µg/mL | > 64 µg/mL | Toxic | 5.43 | 5.36 | inactive | Toxic |
| CCCCCc1ccc(C(=O)Nc2ccc3c(c2)nc(N)n3CCc2ccccn2)cc1.Cl | 32 µg/mL | 32 µg/mL | 32 µg/mL | 64 µg/mL | 32 µg/mL | 32 µg/mL | 32 µg/mL | 64 µg/mL | 32 µg/mL | > 64 µg/mL | > 64 µg/mL | Non-toxic | 5.14 | 5.05 | inactive | Non-toxic |
| CCCCCc1ccc(C(=O)Nc2ccc3c(c2)nc(N)n3CCc2nc3ccccc3[nH]2)cc1.Cl | > 64 µg/mL | > 64 µg/mL | 64 µg/mL | > 64 µg/mL | > 64 µg/mL | > 64 µg/mL | 64 µg/mL | > 64 µg/mL | > 64 µg/mL | > 64 µg/mL | > 64 µg/mL | Non-toxic | 5.15 | < 4.70 | inactive |  |
| CCCCCc1ccc(C(=O)Nc2ccc3c(c2)nc(N)n3CCc2ccccc2OC)cc1.Cl | 16 µg/mL | 16 µg/mL | 16 µg/mL | 16 µg/mL | 16 µg/mL | 8 µg/mL | 16 µg/mL | 16 µg/mL | 16 µg/mL | > 64 µg/mL | > 64 µg/mL | Non-toxic | 5.24 | 5.14 | inactive | Toxic |
| CCCCCc1ccc(C(=O)Nc2ccc3c(c2)nc(N)n3Cc2ccc(OC)cc2)cc1.Cl | > 64 µg/mL | 16 µg/mL | 16 µg/mL | 16 µg/mL | 16 µg/mL | 16 µg/mL | 16 µg/mL | 16 µg/mL | > 64 µg/mL | > 64 µg/mL | > 64 µg/mL | Non-toxic | 5.24 | 4.94 | inactive | Toxic |
| CCCCCc1ccc(C(=O)Nc2ccc3c(c2)nc(N)n3C(C)C)cc1.Cl | 16 µg/mL | 16 µg/mL | 16 µg/mL | 16 µg/mL | 16 µg/mL | 16 µg/mL | 8 µg/mL | 8 µg/mL | 16 µg/mL | 32 µg/mL | > 64 µg/mL | Non-toxic | 5.10 | 5.03 | inactive | Non-toxic |
| CCCCCc1ccc(C(=O)Nc2ccc3c(c2)nc(N)n3C)cc1.Cl | 16 µg/mL | 32 µg/mL | 32 µg/mL | 16 µg/mL | 64 µg/mL | 64 µg/mL | 32 µg/mL | 16 µg/mL | 8 µg/mL | 64 µg/mL | 64 µg/mL |  | < 4.70 | < 4.70 | inactive |  |
| CCCCCCCCCCCCn1c(N)nc2cc(NC(=O)c3ccc(CCCCC)cc3)ccc21.Cl | > 64 µg/mL | > 64 µg/mL | > 64 µg/mL | > 64 µg/mL | > 64 µg/mL | > 64 µg/mL | > 64 µg/mL | > 64 µg/mL | > 64 µg/mL | > 64 µg/mL | > 64 µg/mL |  | < 4.70 | < 4.70 | inactive |  |
| CCCCCc1ccc(C(=O)Nc2ccc3[nH]c(N)nc3c2)cc1 | 16 µg/mL (≈ 49.6 µM) | 8 µg/mL (≈ 24.8 µM) | 16 µg/mL (≈ 49.6 µM) | 16 µg/mL (≈ 49.6 µM) | 8 µg/mL (≈ 24.8 µM) | 8 µg/mL (≈ 24.8 µM) | 8 µg/mL (≈ 24.8 µM) | 16 µg/mL (≈ 49.6 µM) | 8 µg/mL (≈ 24.8 µM) | 16 µg/mL (≈ 49.6 µM) | 16 µg/mL (≈ 49.6 µM) | Toxic | 4.86 | < 4.70 |  |  |
